Counter-ions that a name gives are not always drawn. Like-named read-outs stand apart in the source and are kept apart here.
Tests used:
Experiment in all cases: Cell proliferation assay at 10 μM
A375 = assay type: cell-based, human; conditions: Homo sapiens, read-out: Cell viability observed at 10 μM
Procedure: (§1) The human melanoma cell line A375 and colorectal carcinoma cell line HCT-116 were cultured in Dulbecco's modified Eagle's medium supplemented with 10% fetal bovine serum and 1% Penicillin-Streptomycin. The human leukemia cell line MOLM-14 was cultured in Minimum Essential Medium Alpha Medium supplemented with 10% Fetal Bovine Serum and 1% Penicillin-Streptomycin. All the cell lines were maintained at 37° C. with 5% CO2.
(§2) Briefly, adherent cells, A375 and HCT-116 cells were respectively plated at 800 or 5,000 cells per well onto 96-well plates in 90 μL of media per well and were allowed to grow overnight before the assay.
(§3) Compounds were added at different concentrations to each well, and cell cultures were incubated for 72 h. Vehicle (DMSO or H2O) was used as a control, and all compounds were tested in a constant percentage of vehicle. Cell outgrowth was measured using for adherent cells CellTiter […] Aqueous One Solution Cell Proliferation Assay (Promega) and for cell suspension, Sulforhodamine B colorimetric assay as described in Vichai et al. (Vichai, V. and Kirtikara, K. Nat. Protoc. 2006 (1) 1112-1116). Absorbance was measured using an Infinite F200 Pro or Sunrise TECAN plate reader.
(§4) In each experiment, each point represents the average of two replicates in cell culture.
(§5) Results are presented in Table 1 below for concentrations of 10 μM of tested compounds.

HCT-116 = assay type: cell-based; conditions: Homo sapiens, HCT-116, 72 h
Procedure: as §1, §2, §3, §4, §5

MOLM-14 = assay type: cell-based, human; conditions: Homo sapiens, read-out: Cell viability observed at 10 μM
Procedure: as §1
For MOLM-14 cell line, which grows in suspension, 30,000 cells were plated onto 96-well plates immediately before the assay.
as §3, §4, §5

[1] = read-out: Cell viability observed at 10 μM
[2] = A-375, A375, 10 μM, 72 h, % of cell viability remaining
[3] = HCT-116, 10 μM, 72 h, % of cell viability remaining, read-out: Cell viability observed at 10 μM
[4] = MOLM-14, 10 μM, 72 h, % of cell viability remaining

| Structure (SMILES) | viability at 10 µM (A375; A-375, 72 h) [%] | viability at 10 µM (HCT-116; [1]) [%] | viability at 10 µM (MOLM-14; MOLM-14, 72 h) [%] | viability at 10 µM (HCT-116; read-out: Cell viability observed at 10 μM, HCT-116, 10 μM, 72 h, % of cell viability remaining) [%] | viability at 10 µM (A375; [2]) [%] | viability at 10 µM (HCT-116; [3]) [%] | viability at 10 µM (MOLM-14; [4]) [%] |
| --- | --- | --- | --- | --- | --- | --- | --- |
| CCN(CC)C1CCN(Cc2cc(-c3ccccc3)nc3ccccc23)CC1 [XX-5, 2-phenyl-4-[4-(N,N-diethylamino)-piperidin-1-ylmethyl]quinoline dihydrochloride] | 60 to 80 | > 80 | 40 to 60 |  |  |  |  |
| CC(c1ccccc1)N1CCC(N(C)c2cc(-c3ccccc3)nc3cc(Cl)ccc23)CC1 (stereo not drawn) [XXX-2, 7-chloro-2-phenyl-4-[N-methyl-N—(N-1-phenylethyl-piperidin-4-yl)-amino]quinoline] | > 80 |  | 60 to 80 | > 80 |  |  |  |
| CCN(CC)CC1CCN(c2cc(-c3ccccc3)nc3ccccc23)CC1 [XXVII-2, 2-phenyl-4-[4-(N,N-diethylaminomethyl)-piperidin-1-yl)quinoline hydrochloride salt] | 20 to 40 | > 80 | 40 to 60 |  |  |  |  |
| CCN(CC)C1CCN(c2cc(-c3ccccc3)nc3cc(Cl)ccc23)CC1 [II-4, 7-chloro-2-phenyl-4-(4-N,N-diethylamino-piperidin-1-yl)quinoline dihydrochloride] | < 20 | 20 to 40 | 60 to 80 |  |  |  |  |
| CC(c1ccccc1)N1CCC(N(C)c2cc(-c3ccccc3)nc3ccccc23)CC1 (stereo not drawn) [XXXI-2, 2-phenyl-4-[N-methyl-N—(N-1-phenylethyl-piperidin-4-yl)-amino]quinoline hydrochloride salt] |  |  |  |  | > 80 | > 80 | > 80 |
| CN(C)CCCNCc1cc(-c2ccccc2)nc2cc(Cl)ccc12 [XLIV-2, N^1,N^1-dimethyl-N^3-(7-chloro-2-phenylquinoline-4-ylmethyl)-propane-1,3-diamine hydrochloride salt] | < 20 | < 20 | < 20 |  |  |  |  |
| c1ccc(-c2cc(N3CCC(N4CCCCC4)CC3)c3ccccc3n2)cc1 [III-4, 2-phenyl-4-([1,4′]-bipiperidin-1′-yl)quinoline dihydrochloride] | > 80 | > 80 | 60 to 80 |  |  |  |  |
| CC(c1cc(-c2ccccc2)nc2ccccc12)N1CCC(N(CCc2ccccc2)Cc2ccccc2)CC1 (stereo not drawn) [XXI-4, 2-phenyl-4-{1-{4-[benzyl(phenethyl)amino]-piperidin-1-yl}-eth-1-yl}quinoline dihydrochloride] | > 80 | > 80 | > 80 |  |  |  |  |
| c1ccc(-c2cc(N3CCC(N4CCOCC4)CC3)c3ccccc3n2)cc1 [Compound V-2, 2-phenyl-4-[(4-morpholin-4-yl)piperidin-1yl]quinoline dihydrochloride] | > 80 | > 80 | 60 to 80 |  |  |  |  |
| CN(c1cc(-c2ccccc2)nc2cc(Cl)ccc12)C1CCN(Cc2ccccc2)CC1 [XXIX-2, 7-chloro-2-phenyl-4-[N-methyl-N—(N-benzylpiperidin-4-yl)-amino]quinoline hydrochloride salt] |  |  |  |  | > 80 | > 80 | > 80 |
| CN(C)CCN(C)c1cc(-c2ccc3ccccc3c2)nc2ccccc12 [XXXVII-2, N^1,N^1,N^2-trimethyl-N^2-(2-naphthalen-2-yl-quinoline-4-yl)-ethane-1,2-diamine hydrochloride salt] | 40 to 60 | > 80 | 40 to 60 |  |  |  |  |
| CCN(CC)C1CCN(c2cc(-c3ccc4ccccc4c3)nc3ccccc23)CC1 [VI-6, 2-(2-naphtyl)-4-(4-N,N-diethylamino-piperidin-1-yl)quinoline dihydrochloride] | < 20 | < 20 | < 20 |  |  |  |  |
| CN(C)CCCN(C)c1cc(-c2ccc3ccccc3c2)nc2ccccc12 [XXXIX-2, N^1,N^1,N^3-trimethyl-N^3-[2-(naphthalen-2-yl)-quinoline-4-yl]-propane-1,3-diamine hydrochloride salt] | < 20 | < 20 | < 20 |  |  |  |  |
